We go through two compounds from patent publication US20090298947A1, “POLYMORPHIC AND AMORPHOUS FORMS OF […] AMORPHOUS COMPOSITIONS” (PLIVA HRVATSKA D.O.O., priority 2008, published 2009).

The nature of data set [1]: Interconversion of form II to form I in stirred suspension, crystal form determined using XRPD. It is filed as physicochemical. As for the experimental part:
Samples after being powdered in a mortar and pestle are applied directly on silicon plate holder. The X-ray powder diffraction pattern was measured with Philips X'Pert PRO X-ray powder diffractometer, equipped with Cu irradiation source=1.54060 ? ( ? ngstrom), X'C.elerator (2.022° 2Θ) detector. Scanning parameters: angle range: 3-40 deg., step size 0.0167, time per step 100 s, continuous scan. The accuracy of peak positions was defined as ±0.2 degrees due to experimental differences like instrumentations and sample preparations.
27.0 g of Lacosamide was dissolved in 300 ml of ethyl acetate. Solution crystallized by cooling at about 42° C. Suspension was cooled to 40° C. and samples were taken in time intervals, filtered and crystal form was determined using XRPD. […] Crystals were filtered, washed with ethyl acetate and dried at 50° C./vacuo yielding 20.0 g Lacosamide form I.
30.0 g of Lacosamide was dissolved in 239 ml of ethyl acetate and 1 ml of water. Solution crystallized by cooling at about 46° C. Suspension was cooled to 40° C. and samples were taken in time intervals, filtered and crystal form was determined using XRPD. […] Crystals were filtered, washed with cold ethyl acetate and dried at 50° C./vacuo yielding 22.9 g Lacosamide form I.

A short description of data set [2]: Temperature dependent X-ray powder diffraction, heating of form II. Format: physicochemical. The procedure:
Temperature dependent X-ray powder diffraction (TDXD) was carried out with a Bruker AXS D8 θ-θ powder diffractometer with parafocusing Bragg-Brentano geometry using CuKα radiation (λ=1.5418 Å, U=34 kV, I=20 mA). The sample was placed on a Pt/Rh ribbon in a MRI high-temperature oven-camera and VPSlits were used to fix the constant irradiated length (20 mm). Data were scanned with an ultrafast detector LynxEye over the angular range 3-38° (2θ) with a step size of 0.0196° (2θ) and a counting time of 58.6 s step^−1. The heating and cooling process was controlled by Eurotherm 2404.
The sample of form II lacosamide (50 mg) was placed on a Pt/Rh ribbon in a MRI high-temperature oven-camera, and heated at rate of 10° C./min up to 100° C. The heating and cooling process was controlled by Eurotherm 2404.

Consider `COC[C@@H](NC(C)=O)C(=O)NCc1ccccc1` [Lacosamide, (R)-N-benzyl-2-acetamido-3-methoxypropionamide], for which the “crystal form determined using XRPD” value in data set [1] (suspension in ethyl acetate and water (239 ml/1 ml), after 2 hours at 40° C.) is “form I”; in data set [1] (suspension in ethyl acetate and water (239 ml/1 ml), sample taken immediately when temperature reached 40° C.) it was “mixture of form I and form II”; in data set [1] (suspension in ethyl acetate, after 2 hours at 40° C.), “mixture of form I and form II”; in data set [1] (suspension in ethyl acetate, after 4 hours at 40° C.), “form I”; in data set [1] (suspension in ethyl acetate, sample taken immediately when temperature reached 40° C.), “form II”.
Regarding `COC[C@@H](NC(C)=O)C(=O)NCc1ccccc1` [form II lacosamide, (R)-N-benzyl-2-acetamido-3-methoxypropionamide], the “temperature of transformation of form II to form III” value in data set [2] (heated at 10° C./min up to 100° C.) was “around 80 °C”. Besides, in data set [2] (sample cooled back to room temperature), the “reversibility of transformation of form II to form III” value is reported as “completely reversible”.
